Data from ChEMBL document CHEMBL3603772, “Chemical Biology of Leucine-Rich Repeat Kinase 2 (LRRK2) Inhibitors” (J Med Chem, 2015).

Experiments:
[1] = biological target: Leucine-rich repeat serine/threonine-protein kinase 2 (Homo sapiens, UniProt Q5S007); assay: Inhibition of LRRK2 (unknown origin)
[2] = Clearance in mouse at 1 mg/kg, iv; type: ADME, organism-based; settings: in vivo
[3] = Inhibition of LRRK2 G2019S mutant-induced neuronal toxicity in rat cortical neurons
Brain = assay: Druguptake in mouse brain at 1 mg/kg, iv; type: ADME, organism-based; settings: in vivo
[4] = biological target: Leucine-rich repeat serine/threonine-protein kinase 2 (Homo sapiens, UniProt Q5S007, G2019S); assay: Inhibition of LRRK2 G2019S mutant in human HEK293 cells assessed as phosphorylation at Ser935; type: cell-based
Sequence of Leucine-rich repeat serine/threonine-protein kinase 2 (Homo sapiens, UniProt Q5S007, G2019S) (Q5S007 whole entry G2019S): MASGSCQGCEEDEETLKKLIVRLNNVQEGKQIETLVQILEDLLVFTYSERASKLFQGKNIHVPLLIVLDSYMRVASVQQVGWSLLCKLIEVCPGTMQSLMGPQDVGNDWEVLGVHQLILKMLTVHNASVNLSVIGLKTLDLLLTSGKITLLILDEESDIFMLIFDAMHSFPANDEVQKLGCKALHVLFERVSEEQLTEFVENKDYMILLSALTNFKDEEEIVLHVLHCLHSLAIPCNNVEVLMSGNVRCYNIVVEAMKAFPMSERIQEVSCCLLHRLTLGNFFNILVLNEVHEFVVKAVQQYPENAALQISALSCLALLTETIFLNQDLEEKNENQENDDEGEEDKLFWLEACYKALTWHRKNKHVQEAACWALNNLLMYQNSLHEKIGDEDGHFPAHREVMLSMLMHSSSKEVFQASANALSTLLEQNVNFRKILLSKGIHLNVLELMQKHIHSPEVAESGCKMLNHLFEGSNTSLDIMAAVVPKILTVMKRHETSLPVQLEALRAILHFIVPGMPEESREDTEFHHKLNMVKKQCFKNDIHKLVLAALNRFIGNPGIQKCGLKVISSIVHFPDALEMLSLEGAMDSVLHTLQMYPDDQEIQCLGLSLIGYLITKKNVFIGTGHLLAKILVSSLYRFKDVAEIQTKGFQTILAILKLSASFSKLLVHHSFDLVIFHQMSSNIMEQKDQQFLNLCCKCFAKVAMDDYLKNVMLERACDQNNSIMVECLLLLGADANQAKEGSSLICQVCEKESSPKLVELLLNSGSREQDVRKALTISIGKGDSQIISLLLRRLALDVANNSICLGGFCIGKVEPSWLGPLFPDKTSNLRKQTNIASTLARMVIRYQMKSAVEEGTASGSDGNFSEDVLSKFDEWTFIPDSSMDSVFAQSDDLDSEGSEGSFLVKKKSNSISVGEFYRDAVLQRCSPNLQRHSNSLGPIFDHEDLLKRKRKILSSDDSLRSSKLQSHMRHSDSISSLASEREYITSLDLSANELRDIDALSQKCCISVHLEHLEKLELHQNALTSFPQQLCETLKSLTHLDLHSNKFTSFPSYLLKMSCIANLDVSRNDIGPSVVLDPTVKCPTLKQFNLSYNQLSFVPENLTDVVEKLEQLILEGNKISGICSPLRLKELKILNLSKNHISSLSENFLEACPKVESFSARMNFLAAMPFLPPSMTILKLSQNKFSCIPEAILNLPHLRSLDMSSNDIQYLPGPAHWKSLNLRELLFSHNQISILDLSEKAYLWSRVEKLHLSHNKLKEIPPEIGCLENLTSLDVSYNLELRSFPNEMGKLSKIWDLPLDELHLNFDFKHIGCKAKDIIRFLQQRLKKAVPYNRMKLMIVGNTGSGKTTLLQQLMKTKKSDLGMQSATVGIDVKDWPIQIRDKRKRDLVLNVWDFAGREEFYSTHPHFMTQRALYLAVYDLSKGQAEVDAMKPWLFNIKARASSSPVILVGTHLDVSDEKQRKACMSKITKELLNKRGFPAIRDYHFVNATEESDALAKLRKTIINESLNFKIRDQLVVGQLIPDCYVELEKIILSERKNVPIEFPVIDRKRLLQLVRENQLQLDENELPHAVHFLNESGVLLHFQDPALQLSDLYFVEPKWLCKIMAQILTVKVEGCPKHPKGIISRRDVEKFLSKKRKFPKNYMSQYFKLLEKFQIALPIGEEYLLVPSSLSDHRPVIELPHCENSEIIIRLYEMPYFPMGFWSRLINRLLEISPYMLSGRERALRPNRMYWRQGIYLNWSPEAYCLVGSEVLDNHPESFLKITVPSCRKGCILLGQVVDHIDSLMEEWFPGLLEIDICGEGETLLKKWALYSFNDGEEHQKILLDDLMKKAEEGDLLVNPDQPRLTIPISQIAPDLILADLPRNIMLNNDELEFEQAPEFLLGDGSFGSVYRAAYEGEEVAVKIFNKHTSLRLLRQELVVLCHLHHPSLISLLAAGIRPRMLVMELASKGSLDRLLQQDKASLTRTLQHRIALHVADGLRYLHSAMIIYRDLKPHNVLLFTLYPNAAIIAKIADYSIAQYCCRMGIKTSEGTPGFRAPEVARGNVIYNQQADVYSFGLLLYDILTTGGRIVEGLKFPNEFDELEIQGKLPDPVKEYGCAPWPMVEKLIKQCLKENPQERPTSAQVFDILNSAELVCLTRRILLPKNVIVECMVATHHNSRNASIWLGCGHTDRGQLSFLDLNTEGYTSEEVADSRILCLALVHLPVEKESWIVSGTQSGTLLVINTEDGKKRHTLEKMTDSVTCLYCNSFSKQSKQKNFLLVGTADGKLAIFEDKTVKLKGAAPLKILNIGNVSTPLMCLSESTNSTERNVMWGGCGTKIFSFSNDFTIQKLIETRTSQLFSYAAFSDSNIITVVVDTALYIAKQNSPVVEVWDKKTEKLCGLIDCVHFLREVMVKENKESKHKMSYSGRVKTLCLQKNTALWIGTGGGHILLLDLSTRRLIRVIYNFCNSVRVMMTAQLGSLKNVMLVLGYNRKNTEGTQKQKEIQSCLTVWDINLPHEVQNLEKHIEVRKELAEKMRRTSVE

Sequence of Leucine-rich repeat serine/threonine-protein kinase 2 (Homo sapiens, UniProt Q5S007) (Q5S007 whole entry): as the sequence (Q5S007 whole entry G2019S) above, with S2019G counted along it

| SMILES | IC50 [1] | clearance [2] | EC50 [3] | Drug uptake (Brain) | IC50 [4] |
| --- | --- | --- | --- | --- | --- |
| COc1cc(C(=O)N2CCC(N3CCN(C)CC3)CC2)ccc1Nc1ncc2c(n1)N(C)c1ccccc1C(=O)N2C | 6 nM | – | – | – | – |
| COc1cc(N2CCOCC2)ccc1Nc1ncc(F)c(Nc2ccccc2NS(C)(=O)=O)n1 | 7 nM | 2.3 mL/min/kg | 100 nM | 4% | – |
| CN1CCN(c2ccc(OCc3ccccc3)c(C(=O)Nc3cccnc3)c2)CC1 | 6 nM | – | – | – | 94 nM |
